Where “and” joins values, the source holds several entries; their conditions need not be identical. Equal values may be shown once. Toxic doses and inconclusive results are not listed.
System: P388 leukemia ip, CD2F1 mice, survival T/C
Experiment: NCI In Vivo Anticancer Drug Screen. Data for tumor model P388 Leukemia (intraperitoneal) in CD2F1 (CDF1) mice
Settings: endpoint: median survival time, higher = longer survival
Procedure, shortened: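 Mice carrying the transplanted tumor received test compound or vehicle. Survival was recorded in each group, and the value is the treated-group measurement divided by that of the vehicle-treated control group.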

[1] = dose: 50.0 mg/kg/injection, schedule: Q01DX005 (ip), vehicle: Klucel (hydroxypropylcellulose) (HPC)
[2] = dose: 100.0 mg/kg/injection, schedule: Q01DX005 (ip), vehicle: Klucel (hydroxypropylcellulose) (HPC)
[3] = dose: 200.0 mg/kg/injection, schedule: Q01DX005 (ip), vehicle: Klucel (hydroxypropylcellulose) (HPC)
[4] = dose: 50.0 mg/kg/injection, schedule: Q01DX009 (ip), vehicle: saline
[5] = dose: 100.0 mg/kg/injection, schedule: Q01DX009 (ip), vehicle: saline
[6] = dose: 200.0 mg/kg/injection, schedule: Q01DX009 (ip), vehicle: saline
[7] = dose: 100.0 mg/kg/injection, schedule: Q04DX003 (ip), vehicle: saline with Tween-80
[8] = dose: 200.0 mg/kg/injection, schedule: Q04DX003 (ip), vehicle: saline with Tween-80
[9] = dose: 400.0 mg/kg/injection, schedule: Q04DX003 (ip), vehicle: saline with Tween-80
[10] = dose: 60.0 mg/kg/injection, schedule: Q01DX005 (ip), vehicle: saline with Tween-80
[11] = dose: 240.0 mg/kg/injection, schedule: Q01DX005 (ip), vehicle: saline with Tween-80

SMILES: CC(C)CC1N=C(NN=C(CCl)CCl)OP1(=O)NCCCCCCNP1(=O)OC(NN=C(CCl)CCl)=NC1CC(C)C (centres undefined)
- T/C (dose: 60.0 mg/kg/injection, schedule: Q01DX005 (ip), vehicle: Klucel (hydroxypropylcellulose) (HPC)): 106 % of control

SMILES: Cn1c(-c2ccccc2)c(C(=O)CC(=O)CN2CCOCC2)c2ccccc21
- T/C (dose: 100.0 mg/kg/injection, schedule: Q01DX001 (ip), vehicle: saline): 98 % of control
- T/C (dose: 200.0 mg/kg/injection, schedule: Q01DX001 (ip), vehicle: saline): 108 % of control
- T/C (dose: 400.0 mg/kg/injection, schedule: Q01DX001 (ip), vehicle: saline): 97 % of control

SMILES: O=[N+]([O-])c1ccc(NCc2ccccc2)nc1
- T/C (dose: 50.0 mg/kg/injection, schedule: Q01DX009 (ip), vehicle: saline with Tween-80): 107 % of control
- T/C (dose: 100.0 mg/kg/injection, schedule: Q01DX009 (ip), vehicle: saline with Tween-80): 117 % of control
- T/C (dose: 200.0 mg/kg/injection, schedule: Q01DX009 (ip), vehicle: saline with Tween-80): 112 % of control

SMILES: Cc1nc2c(cnn2CN2CCCCC2)c(=O)n1-c1ccccc1
- T/C [1]: 100 % of control
- T/C [2]: 101 % of control
- T/C [3]: 107 % of control

SMILES: CCNC(=O)OCc1c(-c2ccccc2)nc2n1CCS2
- T/C (dose: 6.25 mg/kg/injection, schedule: Q01DX001 (ip), vehicle: Klucel (hydroxypropylcellulose) (HPC)): 104 % of control
- T/C (dose: 12.5 mg/kg/injection, schedule: Q01DX001 (ip), vehicle: Klucel (hydroxypropylcellulose) (HPC)): 98 % of control and 115 % of control
- T/C (dose: 25.0 mg/kg/injection, schedule: Q01DX001 (ip), vehicle: Klucel (hydroxypropylcellulose) (HPC)): 114 % of control and 93 % of control
- T/C (dose: 50.0 mg/kg/injection, schedule: Q01DX001 (ip), vehicle: Klucel (hydroxypropylcellulose) (HPC)): 101 % of control and 106 % of control
- T/C (dose: 75.0 mg/kg/injection, schedule: Q01DX001 (ip), vehicle: Klucel (hydroxypropylcellulose) (HPC)): 108 % of control

SMILES: Cc1[nH]ccc(=O)c1O
- T/C (dose: 16.0 mg/kg/injection, schedule: Q01DX009 (ip), vehicle: saline with Tween-80): 105 % of control
- T/C (dose: 32.0 mg/kg/injection, schedule: Q01DX009 (ip), vehicle: saline with Tween-80): 110 % of control
- T/C [4]: 123 % of control
- T/C [5]: 124 % of control
- T/C [6]: 153 % of control
- T/C (dose: 400.0 mg/kg/injection, schedule: Q01DX009 (ip), vehicle: saline): 98 % of control
- T/C (dose: 512.0 mg/kg/injection, schedule: Q01DX009 (ip), vehicle: saline with Tween-80): 91 % of control

SMILES: CN(C)c1nc(OC2C(C(O)CO)OC3OC(C)(C)OC32)nc(N(C)C)n1 (centres undefined)
- T/C [7]: 105 % of control
- T/C [8]: 95 % of control
- T/C [9]: 92 % of control

SMILES: CC1(C)N=C(N)N=C(N)N1c1ccc(CCCCc2ccc(S(=O)(=O)F)cc2)c(Cl)c1
- T/C (dose: 13.2 mg/kg/injection, schedule: Q01DX009 (ip), vehicle: saline): 154 % of control
- T/C (dose: 20.0 mg/kg/injection, schedule: Q01DX009 (ip), vehicle: saline): 159 % of control
- T/C (dose: 30.0 mg/kg/injection, schedule: Q01DX009 (ip), vehicle: saline): 159 % of control
- T/C (dose: 45.0 mg/kg/injection, schedule: Q01DX009 (ip), vehicle: saline): 186 % of control

SMILES: NC(=O)C1CCCN1C(=O)C1CCCN(Cc2ccc(CN3CCCC(C(=O)N4CCCC4C(N)=O)C3)cc2)C1 (centres undefined)
- T/C (dose: 60.0 mg/kg/injection, schedule: Q01DX005 (ip), vehicle: saline): 106 % of control
- T/C (dose: 120.0 mg/kg/injection, schedule: Q01DX005 (ip), vehicle: saline): 97 % of control

SMILES: NC1[N-]C(C2CCCC[N-]2)CC2C(Cl)CCCC12.O=[N+]([O-])O.O=[N+]([O-])O.[Cu+2] (centres undefined)
- T/C (dose: 6.25 mg/kg/injection, schedule: Q04DX002 (ip), vehicle: suspension in saline): 101 % of control
- T/C (dose: 12.5 mg/kg/injection, schedule: Q04DX002 (ip), vehicle: suspension in saline): 111 % of control

SMILES: Cc1cc2ccccc2c(N=Cc2cc(Br)cc(Br)c2O)c1C#N
- T/C (dose: 100.0 mg/kg/injection, schedule: Q01DX001 (ip), vehicle: saline with Tween-80): 95 % of control
- T/C (dose: 200.0 mg/kg/injection, schedule: Q01DX001 (ip), vehicle: saline with Tween-80): 98 % of control
- T/C (dose: 400.0 mg/kg/injection, schedule: Q01DX001 (ip), vehicle: saline with Tween-80): 112 % of control

SMILES: c1ccc2sc(SCCCCCCCCCCCCSc3nc4ccccc4s3)nc2c1
- T/C (dose: 50.0 mg/kg/injection, schedule: Q01DX005 (ip), vehicle: Klucel + Tween-80): 98 % of control
- T/C (dose: 100.0 mg/kg/injection, schedule: Q01DX005 (ip), vehicle: Klucel + Tween-80): 94 % of control
- T/C (dose: 200.0 mg/kg/injection, schedule: Q01DX005 (ip), vehicle: Klucel + Tween-80): 96 % of control

SMILES: CCOC(=O)NC(=O)c1c(C)oc(C)cc1=O
- T/C (dose: 50.0 mg/kg/injection, schedule: Q01DX009 (ip), vehicle: Klucel (hydroxypropylcellulose) (HPC)): 118 % of control
- T/C (dose: 100.0 mg/kg/injection, schedule: Q01DX009 (ip), vehicle: Klucel (hydroxypropylcellulose) (HPC)): 115 % of control
- T/C (dose: 200.0 mg/kg/injection, schedule: Q01DX009 (ip), vehicle: Klucel (hydroxypropylcellulose) (HPC)): 107 % of control

SMILES: O=C(C(=O)c1ccccn1)c1ccccn1
- T/C (dose: 50.0 mg/kg/injection, schedule: Q04DX003 (ip), vehicle: saline with Tween-80): 100 % of control
- T/C [7]: 105 % of control
- T/C [8]: 109 % of control
- T/C [9]: 100 % of control

SMILES: NC(N)=NN=c1/c(=N\N=C(N)N)c2ccccc2/c1=N/N=C(N)N
- T/C (dose: 25.0 mg/kg/injection, schedule: Q01DX001 (ip), vehicle: saline): 99 % of control

SMILES: C=CCc1cn(C2CC(OC(=O)c3ccc(Cl)cc3)C(COC(=O)c3ccc(Cl)cc3)O2)c(=O)[nH]c1=O (centres undefined)
- T/C [1]: 98 % of control
- T/C [2]: 98 % of control
- T/C [3]: 91 % of control

SMILES: NC1[N-]C(C2CCCC[N-]2)CC2CCCCC21.NC1[N-]C(C2CCCC[N-]2)CC2CCCCC21.O=[N+]([O-])O.[Cu+] (centres undefined)
- T/C (dose: 6.25 mg/kg/injection, schedule: Q04DX009 (ip), vehicle: suspension in saline): 98 % of control
- T/C (dose: 12.5 mg/kg/injection, schedule: Q04DX009 (ip), vehicle: suspension in saline): 103 % of control
- T/C (dose: 25.0 mg/kg/injection, schedule: Q04DX009 (ip), vehicle: suspension in saline): 113 % of control

SMILES: CC(C)(CO)[C@@H](O)C(=O)NCCC(=O)O
- T/C [4]: 108 % of control
- T/C [5]: 113 % of control
- T/C [6]: 106 % of control

SMILES: Cn1cc(F)c(=O)n(C)c1=O
- T/C (dose: 30.0 mg/kg/injection, schedule: Q04DX002 (ip), vehicle: saline): 96 % of control
- T/C (dose: 60.0 mg/kg/injection, schedule: Q04DX002 (ip), vehicle: saline): 100 % of control
- T/C (dose: 120.0 mg/kg/injection, schedule: Q04DX002 (ip), vehicle: saline): 98 % of control
- T/C (dose: 125.0 mg/kg/injection, schedule: Q04DX002 (ip), vehicle: saline): 96 % of control
- T/C (dose: 240.0 mg/kg/injection, schedule: Q04DX002 (ip), vehicle: saline): 99 % of control
- T/C (dose: 250.0 mg/kg/injection, schedule: Q04DX002 (ip), vehicle: saline): 105 % of control

SMILES: CC(=O)[C@H]1C[C@H](O)[C@H]2[C@@H]3CCC4=CC(=O)CC[C@]4(C)[C@H]3C[C@@H](O)[C@@]21C
- T/C [1]: 100 % of control
- T/C [2]: 100 % of control
- T/C [3]: 97 % of control

SMILES: N=C(N)c1nc2ccccc2s1
- T/C (dose: 12.5 mg/kg/injection, schedule: Q01DX009 (ip), vehicle: other): 102 % of control
- T/C (dose: 25.0 mg/kg/injection, schedule: Q01DX009 (ip), vehicle: other): 104 % of control
- T/C (dose: 50.0 mg/kg/injection, schedule: Q01DX009 (ip), vehicle: other): 93 % of control

SMILES: O=C(Nc1ccc(Cl)cc1)Nc1nnc2nc(CC(=O)c3ccc4ccccc4c3)c(=O)[nH]n12
- T/C [10]: 97 % of control
- T/C (dose: 120.0 mg/kg/injection, schedule: Q01DX005 (ip), vehicle: saline with Tween-80): 99 % of control
- T/C [11]: 97 % of control

SMILES: Cc1cc(C2c3ccccc3-c3ccccc32)cc(C)c1O
- T/C (dose: 1.87 mg/kg/injection, schedule: Q01DX005 (ip), vehicle: saline with Tween-80): 90 % of control
- T/C (dose: 3.75 mg/kg/injection, schedule: Q01DX005 (ip), vehicle: saline with Tween-80): 97 % of control
- T/C (dose: 7.5 mg/kg/injection, schedule: Q01DX005 (ip), vehicle: saline with Tween-80): 91 % of control
- T/C (dose: 15.0 mg/kg/injection, schedule: Q01DX005 (ip), vehicle: saline with Tween-80): 91 % of control
- T/C [10]: 90 % of control
- T/C [11]: 92 % of control

SMILES: CCOC(=O)CNC(=O)/C=C\C(=O)NC(=O)OCC
- T/C (dose: 3.7 mg/kg/injection, schedule: Q01DX009 (ip), vehicle: saline with Tween-80): 110 % of control
- T/C (dose: 7.5 mg/kg/injection, schedule: Q01DX009 (ip), vehicle: saline with Tween-80): 107 % of control

Source: PubChem BioAssay AID330 (DTP/NCI, 2004)
